Reference: PMC10965668, “Combined use of multiparametric high-content-screening and in vitro circadian reporter assays in neurotoxicity evaluation” (Archives of Toxicology, 2024)
Where two headings read alike, the source gives them in different places. Marks after values point to notes of the source that are not given here.

Legend:
Assay type in all cases: cell-based, human
U87 MG/PER2-dLuc cells [1] = test: multiparametric high-content screening (HCS) assay; conditions: for LOAEL CA (calcium ion): Fluo-4 AM; for LOAEL MMP (mitochondrial membrane potential): TMRM; for lowest concentration with decrease in MMP / concentrations that decreased nuclear size: 24 h of treatment; for LOAEL LP (lipid peroxidation): BODIPY 665/676; for concentrations with increased lipid peroxidation / concentrations that changed nuclear size: 72 h of treatment; for LOAEL NC (nuclear size): Hoechst 33342; for concentrations that decreased nuclear size: p < 0.01, text; for concentrations that changed nuclear size: MHg biphasic changes, MPP + reduction
Experimental: A multiparametric analysis of compound toxicity at the level of individual cells was conducted using the HCS method established by Tolosa et al. ([2012]) to assess the liver toxicity of chemicals and drugs. Briefly, U87 MG/PER2-dLuc cells were seeded in 96-well plates specific for HCS at a density of 10^4 cells/well. […] Following these treatments, cells were treated with a mixture of Hoechst 33342 (Hoechst) (B2261; Sigma-Alrich) at 1.5 µg/mL to assess the nuclear size (NC), 75 ng/mL tetramethyl rhodamine methyl ester (TMRM) (T-668; Molecular Probes) as a mitochondrial membrane potential (MMP) sensor, 0.24 µM fluo-4 acetoxymethyl ester (Fluo-4 AM) (F14217; Molecular Probes) to detect intracellular calcium ions (Ca^2+), and 1.5 µg/mL of (E,E)-3,5-bis-(4-phenyl-1,3-butadienyl)-4,4-difluoro-4-bora-3a,4a-diaza-s-indacene (BODIPY 665/676) (b-3932; Molecular Probes) to evaluate lipid peroxidation. After incubation for 1 h, the cells were imaged using an IN Cell Analyzer 6000 (GE Healthcare Life Sciences) and analyzed using IN Cell Miner HCM. The data were analyzed with IN Cell Analyzer 6000 Analysis Software. Nuclear morphological alterations were assessed based on the Hoechst staining. The nucleus was defined as the main object detected using an edge detection algorithm. To separate individual cells, segmentation was applied. All measurements were restricted to live cells. Lipid peroxidation was detected based on BODIPY fluorescence intensity in the cytoplasm. The cellular MMP was defined as the TMRM fluorescence intensity in punctate cytosolic regions surrounding the nucleus. Fluo-4 intensity was used to measure changes in the cytosolic-free Ca^2+ concentration. An intensity algorithm with a fixed threshold was used to measure TMRM, Fluo-4, and BODIPY fluorescence. Each measurement was performed in individual cells. The values of triplicate same-treatment wells were averaged and normalized to the average value of vehicle control (0.1% DMSO-treated or naïve cells).
The values of triplicate same-treatment wells were averaged and normalized to the average value of the negative control group, and differences in parameters between concentrations were analyzed using one-way ANOVA followed by Duncan’s tests. A p-value < 0.05 was considered significant.

U87 MG/PER2-dLuc cells [2] = test: in vitro cellular bioluminescence (PER2-dLuc circadian reporter) assay; conditions: for concentration that disrupted the cellular circadian rhythm / concentration with no disruptive effect on cellular circadian rhythm: Fig. 3; for LOAEL Circadian disruption: U87 MG/PER2-dLuc cells, bioluminescence monitored 5 days; for effect on cellular circadian rhythm: at disrupting concentration: MPP + ≥ 30 µM, DDT 10 µM, PMX ≥ 30 µM, CPX ≥ 40 µM, CPF 1.5 µM
Experimental: U-87 MG (ATCC® HTB-14™) is a well-recognized human glioblastoma cell line widely used in the field of neuroscience. U87 MG cells have a regular and strong cellular circadian rhythm after transfection with a circadian gene (i.e., BMAL1) reporter vector (Jung et al. [2013]; Slat et al. [2017]). As described in our previous report (Fang et al. [2015], [2017]), U87 MG cells were transfected with a circadian reporter vector pGL [PER2P (Luc2P/Neo)] expressing destabilized firefly luciferase driven by the human PER2 promoter using FuGene HD™ transfection reagent (LightSwitch Genomics), and stably transfected cells were selected and cultured with 1000 μg/mL G418 (Invitrogen). The stably transfected cells were used to examine the cellular circadian rhythm using an in vitro cellular bioluminescence assay. U87 MG/PER2P-dLuc cells were cultured in Eagle’s minimum essential medium (EMEM) (11430030; Gibco) supplemented with 5% fetal bovine serum (FBS) (26140079; Gibco) and 1% penicillin/streptomycin (15140122; Gibco) at 37 °C in an atmosphere of 95% humidity and 5% CO2.
(§1) Briefly, cultured U87 MG/PER2 -dLuc cells were seeded in 35-mm dishes at 3 × 10^5 cells/dish and incubated until 70–80% confluency was reached. The cells were FBS-starved for three days at 70% confluency and then synchronized with 50% horse serum (16050122; Gibco) (Balsalobre et al. [1998]). After decanting and washing, recording medium (EMEM with 20% of growing medium containing 5% FBS, 6.5 mM sodium bicarbonate, 10 mM HEPES buffer [pH 7.2], 0.1 mM luciferin [E1602; Promega], and 50 U/mL penicillin and 50 µg/mL streptomycin) was added. Subsequently, the cells were treated with each compound. The 35-mm dishes were sealed with a sterile glass cover slide using silicon grease and subjected to continuous monitoring with a LumiCycle 32™ (Actimetrics) for 5 days. The analytical method was optimized according to the instruction manual of the LumiCycle Analysis Software (Actimetrics). Using this software, data were detrended (running average), and best fits to a sine wave were estimated using the Levenberg–Marquardt algorithm for period, phase, amplitude, and damping rate measurements, as previously reported (Chen et al. [2012]; Fang et al. [2015], [2017]).

U87 MG/PER2-dLuc cells [3] = test: cells; conditions: 72 h treatment
Experimental: U87 MG/PER2-dLuc cells were subjected to the 3-(4, 5-dimethylthiazol-2-yl)-2, 5-diphenyl tetrazolium bromide (MTT) (M2128; Sigma-Aldrich) assay. […] Briefly, U87 MG/PER2-dLuc cells were seeded in 96-well plates at a density of 10^5 cells/mL, incubated for 48 h, and treated with relevant chemicals at various concentrations for 72 h. Subsequently, the media with chemicals were decanted and 20μl of MTT reagent solution (5 mg/ml) with 80μl of the media was added to all wells the plates and were incubated for 2 h until the formation of formazan crystals. The reagent solution was decanted, and 100μl of DMSO (D8418; Sigma-Aldrich) was added. Absorbance was measured at 570 nm using a spectrophotometer (Molecular Devices). The values of triplicate same-treatment wells were averaged.

U87 MG/PER2-dLuc cells [4] = test: cellular circadian rhythm assay with neurotoxicants in the presence of antioxidants
Experimental: as §1
The cellular circadian rhythm was recorded as described above.

[5] = Homo sapiens, U-87 MG, no unit with values, axis Concentration[μM], read-out: IC50 (cell viability, MTT; Fig. 1)
[6] = Homo sapiens, U-87 MG, read-out: IC50 (MTT, Table 1)

Row | Compound | LOAEL CA (calcium ion) (U87 MG/PER2-dLuc cells [1]; 24-h treatment) | LOAEL MMP (mitochondrial membrane potential) (U87 MG/PER2-dLuc cells [1]; 24-h treatment) | LOAEL CA (calcium ion) (U87 MG/PER2-dLuc cells [1]; 72-h treatment) | lowest concentration with decrease in MMP (U87 MG/PER2-dLuc cells [1]) | concentration that disrupted the cellular circadian rhythm (U87 MG/PER2-dLuc cells [2]) | LOAEL Circadian disruption (U87 MG/PER2-dLuc cells [2]) | effect on cellular circadian rhythm (U87 MG/PER2-dLuc cells [2]) | IC15 (MTT, Table 1) (U87 MG/PER2-dLuc cells [3]) | concentration that increased intracellular Ca2+ levels (U87 MG/PER2-dLuc cells [1]; 72-h timepoint) | LOAEL LP (lipid peroxidation) (U87 MG/PER2-dLuc cells [1]; 72-h treatment) | concentrations with increased lipid peroxidation (U87 MG/PER2-dLuc cells [1]) | IC50 (U87 MG/PER2-dLuc cells [3]; read-out: IC50 (MTT, Table 1)) | also measured
1 | CCOP(=S)(OCC)Oc1nc(Cl)c(Cl)cc1Cl [CPF, chlorpyrifos] | 1.41** µM | 1.41** µM | 0.7** µM | 1.41 µM | 1.5 µM | 1.5 µM | abolished the cellular circadian rhythm | 13.9 µM |  |  |  |  | concentrations that increased the intracellular Ca2+ level (U87 MG/PER2-dLuc cells [1]; both the 24- and 72-h timepoints): 0.7 to 45 µM; IC50 (U87 MG/PER2-dLuc cells [3]; [5]): 43.7 µM; IC50 (U87 MG/PER2-dLuc cells [3]; [6]): 60 µM
2 | O=C(O)c1cn(C2CC2)c2cc(N3CCNCC3)c(F)cc2c1=O [CPX, ciprofloxacin] |  | 0.94** µM | 0.94** µM | 0.94 µM | ≥ 40 µM | 40 µM | increased the circadian rhythm | 19.8 µM | > 0.94 µM | 0.94** µM | > 0.94 µM |  | IC50 (U87 MG/PER2-dLuc cells [3]; [5]): 98.3 µM; IC50 (U87 MG/PER2-dLuc cells [3]; [6]): 98 µM; IC50 (U87 MG/PER2-dLuc cells [3]; Homo sapiens, U-87 MG, read-out: IC50 (cell viability, MTT)): 98.3 µM
3 | Clc1ccc(C(c2ccc(Cl)cc2)C(Cl)(Cl)Cl)cc1 [DDT, 4,4′-dichlorodiphenyltrichloroethane] | 30** µM | 15 µM | 0.47** µM | 15 µM | 10 µM | 10 µM | robust rhythm was gradually abolished | 18.3 µM | > 0.47 µM |  |  | 60 µM | LOAEL NC (nuclear size) (U87 MG/PER2-dLuc cells [1]; 24-h treatment): 120** µM; concentrations that decreased nuclear size (U87 MG/PER2-dLuc cells [1]): 120 µM
4 | [CH3][Hg][Cl] [MHg, methylmercury (II) chloride] |  | 0.5* µM | 0.031** µM | 0.5 µM | 2.0 µM |  |  | 2.5 µM | above 0.03 µM | 0.031** µM | above 0.031 µM | 3.9 µM | LOAEL LP (lipid peroxidation) (U87 MG/PER2-dLuc cells [1]; 24-h treatment): 8** µM; LOAEL NC (nuclear size) (U87 MG/PER2-dLuc cells [1]; 24-h treatment): 4** µM; LOAEL NC (nuclear size) (U87 MG/PER2-dLuc cells [1]; 72-h treatment): 4** µM; concentration that significantly reduced lipid peroxidation levels (U87 MG/PER2-dLuc cells [1]; 24 h after treatment): 8.0 µM; concentrations that decreased nuclear size (U87 MG/PER2-dLuc cells [1]): 4 to 8 µM; concentrations that changed nuclear size (U87 MG/PER2-dLuc cells [1]): 2 to 8 µM; IC50 (U87 MG/PER2-dLuc cells [3]; read-out: IC50 (cell viability, MTT)): 3.97 µM
5 | C[n+]1ccc(-c2ccccc2)cc1 [MPP +, 1-methyl-4-phenylpyridinium] | 40 µM | 40* µM | 0.63 µM | 40 µM | ≥ 30 µM | 30 µM | advanced phase and decreased amplitude | 68.4 µM | 0.63 µM | 160 µM | > 160 µM | 93 µM | concentration that increased intracellular Ca2+ levels (U87 MG/PER2-dLuc cells [1]; 24-h timepoint): 40 µM; LOAEL NC (nuclear size) (U87 MG/PER2-dLuc cells [1]; 72-h treatment): 80 µM; concentrations that changed nuclear size (U87 MG/PER2-dLuc cells [1]): 80 to 120 µM; concentration with no disruptive effect on cellular circadian rhythm (U87 MG/PER2-dLuc cells [2]): 10 µM
6 | C[Se]C[C@H](N)C(=O)O [MSC, methylselenocysteine] |  |  |  |  |  |  |  |  |  |  |  |  | restoration of circadian rhythm disrupted by CPF (U87 MG/PER2-dLuc cells [4]; 1.5 µM CPF, 20 µM NAC, 12.5 µM (or 25 µM) MSC): restored the circadian rhythm; effect on circadian rhythm disrupted by MHg (U87 MG/PER2-dLuc cells [4]; 2.0 µM MHg, co-treatment with NAC and MSC): reduced the first high-altitude peak; restoration of cellular rhythm disrupted by DDT (U87 MG/PER2-dLuc cells [4]; 10 µM DDT, co-treatment with NAC (10 or 20 µM) or MSC (12.5 or 25 µM)): restored the cellular rhythm; restoration of MPP + -disrupted rhythmicity (U87 MG/PER2-dLuc cells [4]; MPP + at LOAEL, restored rhythm not similar to that of control cells): restore the cellular circadian rhythm to a certain extent
7 | polymyxin B [PMX] |  | 3.91* µM | 3.91** µM | 3.91 µM | ≥ 30 µM | 30 µM | advanced phase and decreased amplitude | 49 µM |  |  |  | 51 µM | concentration with no disruptive effect on cellular circadian rhythm (U87 MG/PER2-dLuc cells [2]): 15 µM
